Laboratory results from US7498357B2, “Chalcone compounds” (Takara Bio Inc., priority 2003, dated 2009).

Assays:
[1] = target: T1, aldose reductase derived from human muscle cells (Homo sapiens, UniProt P15121); test: Inhibitory activities of aldose reductase; type: biochemical; conditions: for inhibitory activities of aldose reductase (in words): concentrations as in Table 1; for inhibition at 10 µM: final concentration 10 μM; for inhibition at 10 µM / inhibition at 20 µM / inhibition at 40 µM: average of two values, read-out: Inhibitory Ratio (%) of Aldose Reductase; for inhibition at 20 µM: final concentration 20 μM; for inhibition at 40 µM: final concentration 40 μM
T1 construct: purchased Wako Pure Chemical Industries
Description: Inhibitory activities of aldose reductase of the compounds prepared in Examples 1 to 9 (TB3, TB4, TB5, TB6, TB7, TB8, TB9, compound (C081) or compound (C042)) were measured by the following method. Twenty microliters of 100 mM methylglyoxal was added to 10 μL of a sample (dissolved each compound in a 50% aqueous dimethyl sulfoxide solution), 100 μL of 0.2 M phosphate buffer (pH 6.2), 20 μL of 1 mM NADPH (phosphate buffer), and 10 μL of a solution of aldose reductase derived from human muscle cells (0.1 U/mL, manufactured by Wako Pure Chemical Industries, phosphate buffer). After 30 seconds passed, change in absorbance of NADPH at 340 nm was determined for 180 seconds. A 50% aqueous dimethyl sulfoxide solution was used as a negative control in place of the sample. In addition, the absorbance was determined using distilled water as a blank of each sample in place of the methylglyoxal solution. The found values are expressed as an average of the values in two experimental values. The inhibitory ratio (%) of aldose reductase was calculated in accordance with the following formula. Inhibitory Ratio (%)=[1−[(ΔAs−ΔAsb)/(ΔAc−ΔAcb)]]×100
Here, ΔAs and ΔAc are changes in absorbance per 1 minute of a sample solution, and a negative control solution, respectively, and ΔAsb and ΔAcb are changes in absorbance per 1 minute of blank of a sample solution, and a negative control solution, respectively.

RAW 264.7 cells = test: Suppressive activities of NO production (LPS-induced, NO2- by Griess reagent); type: cell-based; conditions: for inhibition at 10 µM / inhibition at 20 µM / inhibition at 5 µM: Mus musculus, LPS, 16 hours, read-out: Suppressive Ability for Induction of NO Production by LPS (%); for inhibition at 10 µM: RAW264.7, 10 μM; for inhibition at 20 µM: RAW264.7, 20 μM; for suppression of the induction of NO production by LPS (in words): concentrations as in Table 2; for inhibition at 5 µM: RAW264.7, 5 μM
Description: Suppressive activities of NO production of the compounds prepared in Examples 1 to 9 (TB3, TB4, TB5, TB6, TB7, TB8, TB9, compound (C081) and compound (C042)) were measured by the following method. RAW 264.7 cells (ATCC TIB 71) were suspended in Dulbecco's modified Eagle's medium (manufactured by Sigma, D5796) containing 10% fetal bovine serum (manufactured by Bio Whittaker, 14-506F), so as to have a concentration of 4×10^5 cells/mL, and the suspension was put to each well of a 48-well microtiter plate in an amount of 500 μL per well. The cells were cultured at 37° C. in the presence of 5% carbon dioxide gas. After 24 hours, the medium was exchanged with Dulbecco's modified Eagle's medium (manufactured by Bio Whittaker, 12-917F) containing 10% fetal bovine serum (manufactured by Bio Whittaker), 2 mM L-glutamine (manufactured by Life Tech Oriental Co., Ltd., 25030-149) without containing phenol red. A 10 mM, 5 mM, or 2.5 mM TB3, TB4, TB5, TB6, TB7, TB8, TB9, compound (C081) or compound (C042) (all are dimethyl sulfoxide solution) was added to each well in an amount of 1 μL per well. After additional 1 hour of culture, a 100 μg/mL aqueous lipopolysaccharide (LPS, manufactured by Sigma, L-2010) solution was added to each well in an amount of 5 μL per well, and the cells were cultured for 16 hours. Thereafter, the concentration of NO2^− which was produced by oxidation of NO in the medium was determined. In addition, there was set a group with addition of dimethyl sulfoxide in place of the each compound as a control. After the above-mentioned culture, 100 μL of a 4% grease reagent (manufactured by Sigma, G4410) was added to 100 μL of the supernatant of the culture medium, and the mixture was allowed to stand at room temperature for 15 minutes. Thereafter, absorbance at 540 nm was determined. The concentration of NO2^− in the medium was calculated from a calibration curve prepared from known concentrations of NaNO2 (manufactured by Sigma, S2252). All of the determinations were carried out twice. The suppressive ability of NO production of the each compound was calculated in accordance with the following formula.

Row | Compound | inhibition at 10 µM [1] [%] | inhibition at 20 µM [1] [%] | inhibition at 40 µM [1] [%] | inhibitory activities of aldose reductase (in words) [1] | inhibition at 10 µM (RAW 264.7 cells) [%] | inhibition at 20 µM (RAW 264.7 cells) [%] | suppression of the induction of NO production by LPS (in words) (RAW 264.7 cells) | inhibition at 5 µM (RAW 264.7 cells) [%]
1 | CC(C)CCc1c(O)ccc(C(=O)/C=C/c2ccc(O)cc2)c1O [Compound (C042), 1-[2,4-dihydroxy-3-(3-methylbutyl)phenyl]-3-(4-hydroxyphenyl)-2-propen-1-one] | 47.8 | 68.7 | – | inhibitory activities of aldose reductase in a concentration-dependent manner | 19.3 | 50.2 | suppressed the induction of NO production by LPS in a concentration-dependent manner | –
2 | COc1ccc(C(=O)/C=C/c2ccc(O)cc2)c(O)c1C/C=C(\C)C/C=C/C(C)(C)O [Compound (C081), 1-[2-hydroxy-3-(7-hydroxy-3,7-dimethyl-2,5-octadienyl)-4-methoxyphenyl]-3-(4-hydroxyphenyl)-2-propen-1-one] | 11.9 | 16.2 | 26.7 | inhibitory activities of aldose reductase in a concentration-dependent manner | 31.6 | 53.7 | suppressed the induction of NO production by LPS in a concentration-dependent manner | –
3 | CC(C)=CCCC(C)(O)C1Cc2c(ccc(C(=O)/C=C/c3ccc(O)cc3)c2O)O1 (centres unmarked) [TB3, 1-[2,3-dihydro-4-hydroxy-2-(1-hydroxy-1,5-dimethyl-4-hexenyl)-benzofuran-5-yl]-3-(4-hydroxyphenyl)-2-propen-1-one] | 14.2 | 30.1 | 53.8 | inhibitory activities of aldose reductase in a concentration-dependent manner | 9.5 | 43.8 | suppressed the induction of NO production by LPS in a concentration-dependent manner | 8.9
4 | COc1ccc(C(=O)/C=C/c2ccc(O)cc2)c2c1CC(C(C)(C)O)O2 (centres unmarked) [TB4, 1-[2,3-dihydro-2-(1-hydroxy-1-methylethyl)-4-methoxybenzofuran-7-yl]-3-(4-hydroxyphenyl)-2-propen-1-one] | 57.4 | 57.9 | – | inhibitory activities of aldose reductase in a concentration-dependent manner | 56.4 | 63.7 | suppressed the induction of NO production by LPS in a concentration-dependent manner | 32.6
5 | C/C(=C\Cc1c(O)ccc(C(=O)/C=C/c2ccc(O)cc2)c1O)CCC(O)C(C)(C)O (centres unmarked) [TB5, 1-[2,4-dihydroxy-3-(6,7-dihydroxy-3,7-dimethyl-2-octenyl)phenyl]-3-(4-hydroxyphenyl)-2-propen-1-one] | 35.1 | 49.7 | 66.7 | inhibitory activities of aldose reductase in a concentration-dependent manner | 35.2 | 76 | suppressed the induction of NO production by LPS in a concentration-dependent manner | 17.9

The next lines start with results.

Row | inhibition at 10 µM [1] [%] | inhibition at 20 µM [1] [%] | inhibition at 40 µM [1] [%] | Compound | inhibitory activities of aldose reductase (in words) [1] | inhibition at 10 µM (RAW 264.7 cells) [%] | inhibition at 20 µM (RAW 264.7 cells) [%] | suppression of the induction of NO production by LPS (in words) (RAW 264.7 cells) | inhibition at 5 µM (RAW 264.7 cells) [%]
6 | 41.9 | 56.5 | 66.8 | CCOC(C)(C)C(O)CC/C(C)=C/Cc1c(O)ccc(C(=O)/C=C/c2ccc(O)cc2)c1O (centres unmarked) [TB6, 1-[3-(7-ethoxy-6-hydroxy-3,7-dimethyl-2-octenyl)-2,4-dihydroxyphenyl]-3-(4-hydroxyphenyl)-2-propen-1-one] | inhibitory activities of aldose reductase in a concentration-dependent manner | 29.4 | 62.2 | suppressed the induction of NO production by LPS in a concentration-dependent manner | 17.3
7 | 20.1 | 33.8 | 54.3 | COc1ccc(C(=O)/C=C/c2ccc(O)cc2)c(O)c1CC1C2(C)CCC(O2)C1(C)C (centres unmarked) [TB7, 1-[3-(2,5-epoxy-2,6,6-trimethyl-cyclohexylmethyl)-2-hydroxy-4-methoxyphenyl]-3-(4-hydroxyphenyl)-2-propen-1-one] | inhibitory activities of aldose reductase in a concentration-dependent manner | 23.9 | 42.9 | suppressed the induction of NO production by LPS in a concentration-dependent manner | 12.2
8 | 17.9 | 32.7 | 44.2 | COc1ccc(C(=O)/C=C/c2ccc(O)cc2)c(O)c1C/C=C(\C)C/C=C/C(C)(C)OO [TB8, 1-[2-hydroxy-3-(7-hydroperoxy-3,7-dimethyl-2,5-octadienyl)-4-methoxyphenyl]-3-(4-hydroxyphenyl)-2-propen-1-one] | inhibitory activities of aldose reductase in a concentration-dependent manner | 18.7 | 36.9 | suppressed the induction of NO production by LPS in a concentration-dependent manner | 12.2
9 | 31.6 | 44.7 | 57.3 | C=C(C)C(CC/C(C)=C/Cc1c(OC)ccc(C(=O)/C=C/c2ccc(O)cc2)c1O)OO (centres unmarked) [TB9, 1-[2-hydroxy-3-(6-hydroperoxy-3,7-dimethyl-2,7-octadienyl)-4-methoxyphenyl]-3-(4-hydroxyphenyl)-2-propen-1-one] | inhibitory activities of aldose reductase in a concentration-dependent manner | 29.2 | 49.6 | suppressed the induction of NO production by LPS in a concentration-dependent manner | 11.2
